Measured values published in ChEMBL document CHEMBL3399924, “Indirubin 3'-(O-oxiran-2-ylmethyl)oxime: a novel anticancer agent” (Bioorg Med Chem Lett, 2015).
Calls of active or inactive are those of the source. No cut-off for these calls is given here.

Key:
[1] = system: HepG2; assay: Antiproliferative activity against human HepG2 cells assessed cell survival after 24 hrs by alamarBlue assay; assay type: functional, cell-based
[2] = system: HepG2; assay: Cytotoxicity against human HepG2 cells assessed cell death after 24 hrs at 1 uM by alamarBlue assay relative to control; assay type: functional; settings: HepG2, 24 h
[3] = system: HepG2; assay: Cytotoxicity against human HepG2 cells assessed cell death after 72 hrs by alamarBlue assay relative to control; assay type: functional, cell-based; settings: HepG2, 72 h
[4] = Retention time of the compound by HPLC chromatogram; assay type: physicochemical
[5] = system: HepG2; assay: Cytotoxicity against human HepG2 cells assessed cell survival rate after 72 hrs at 2 uM by alamarBlue assay relative to control; assay type: functional
[6] = system: HepG2; assay: Cytotoxicity against human HepG2 cells assessed cell death after 72 hrs at 2 uM by alamarBlue assay relative to control; assay type: functional; settings: HepG2, 72 h
[7] = system: HepG2; assay: Cytotoxicity against human HepG2 cells assessed cell survival rate after 24 hrs at 2 uM by alamarBlue assay relative to control; assay type: functional
[8] = system: HepG2; assay: Drug metabolisam in human HepG2 cells assessed as indirubin 3'-(O-2,3-dihydroxypropyl)oxime formation at 1 uM by mass spectrometry; assay type: ADME, cell-based; settings: hepg2, 1 µM
[9] = system: HepG2; assay: Cytotoxicity against human HepG2 cells assessed cell death after 72 hrs at 3 uM by alamarBlue assay relative to control; assay type: functional; settings: HepG2, 72 h
[10] = system: HepG2; assay: Drug formation in human HepG2 cells treated at 1 uM Epox/Ind by mass spectrometry; assay type: ADME, cell-based; settings: hepg2, 1 µM
[11] = system: HepG2; assay: Cytotoxicity against human HepG2 cells assessed cell survival after 24 hrs at 10 uM by alamarBlue assay; assay type: functional, cell-based
[12] = Homo sapiens, HepG2, 24 h, read-out: IC50

Molecule `O=C1Nc2ccccc2/C1=C1/Nc2ccccc2/C1=N\O` has an IC50 [1, 12] of 15 µM.

Molecule `O=C1Nc2ccccc2/C1=C1/Nc2ccccc2/C1=N\OCC1CO1` (stereo not drawn) has an inhibition at 1 µM [2] of 25%, an IC50 [3] of 2.3 µM and a Retention_time [4] of 4.3 min. It also gave an Activity [5] of 44%, an inhibition at 2 µM [6] of 31% and an Activity [7] of 69%. For the same molecule, the Drug metabolism [8] was “metabolite_detected”, the IC50 [1, 12] was 1.7 µM and the inhibition at 3 µM [9] was 89%.

For `O=C1Nc2ccccc2/C1=C1/Nc2ccccc2/C1=N\OCC(O)CO` (stereo not drawn), the IC50 [3] was 2.8 µM, the Retention_time [4] was 3.392 min and the Drug metabolism [10] was “metabolite_detected”. The inhibition at 2 µM [6] was 15%, the IC50 [1, 12] was 2.1 µM and the inhibition at 3 µM [9] was 58%.

In the case of `O=C1Nc2ccccc2/C1=C1/Nc2ccccc2C1=O` [INDIRUBIN], the IC50 ([1]; hepg2) is reported as “Not Active”.

With `O=C1Nc2ccccc2/C1=N\OCC1CO1` (stereo not drawn) the Activity [11] was “inactive”.
